Data on four molecules can be found in PMC6407579, “New flavonoid – N,N-dibenzyl(N-methyl)amine hybrids: Multi-target-directed agents for Alzheimer´s disease endowed with neurogenic properties” (Journal of Enzyme Inhibition and Medicinal Chemistry, 2019).

Where “and” joins values, the source holds several entries; their conditions need not be identical. Identical values can stand only once. Like-named read-outs stand apart in the source and are kept apart here. Where only a bound is given, the exact number is not on record here.

Series [1] in a line: In vitro blood-brain barrier permeation assay (PAMPA-BBB). The following applies: pig, pH 7.4, porcine brain lipid, PBS:ethanol (70:30), 25 °C, read-out: PAMPA-BBB permeability in the CNS (Pe). Format: in vitro ADME. On the procedure: Prediction of the brain penetration was evaluated using a parallel artificial membrane permeation assay (PAMPA-BBB), in a similar manner as previously described[36]^,[46]^,[51–53]. Pipetting was performed with a semi-automatic pipettor (CyBi®-SELMA) and UV reading with a microplate spectrophotometer (Multiskan Spectrum, Thermo Electron Co.). Commercial drugs, phosphate buffered saline solution at pH 7.4 (PBS), and dodecane were purchased from Sigma, Aldrich, Acros, and Fluka. Millex filter units (PVDF membrane, diameter 25 mm, pore size 0.45 μm) were acquired from Millipore. The porcine brain lipid (PBL) was obtained from Avanti Polar Lipids. The donor microplate was a 96-well filter plate (PVDF membrane, pore size 0.45 μm) and the acceptor microplate was an indented 96-well plate, both from Millipore. The acceptor 96-well microplate was filled with 200 μL of PBS: ethanol (70:30) and the filter surface of the donor microplate was impregnated with 5 μL of porcine brain lipid (PBL) in dodecane (20 mg mL^−1). Compounds were dissolved in PBS: ethanol (70:30) at 100 μg mL^−1, filtered through a Millex filter, and then added to the donor wells (200 μL). The donor filter plate was carefully put on the acceptor plate to form a sandwich, which was left undisturbed for 120 min at 25 °C. After incubation, the donor plate is carefully removed and the concentration of compounds in the acceptor wells was determined by UV-Vis spectroscopy. Every sample is analysed at five wavelengths, in four wells and at least in three independent runs, and the results are given as the mean ± standard deviation. In each experiment, 11 quality control standards of known BBB permeability were included to validate and normalise the analysis set.
To check if new compounds could be able to reach their CNS-targets, we used the in vitro parallel artificial membrane permeability assay for the blood-brain barrier (PAMPA-BBB) described by Di et al.[87], and partially modified by us for testing molecules with limited water-solubility[36]^,[46]^,[51–53]. The passive CNS-permeation of new compounds 1–13 through a lipid extract of porcine brain was measured at room temperature. In each experiment, 11 commercial drugs of known brain permeability were also tested and their permeability values normalised to the reported PAMPA-BBB data. […].
On the technique in general: In PAMPA a lipid-coated filter parts donor from acceptor wells.

A further series concerns the target T1, recombinant hMAO-B (Homo sapiens, UniProt P27338).
T1 sequence (P27338 1-520): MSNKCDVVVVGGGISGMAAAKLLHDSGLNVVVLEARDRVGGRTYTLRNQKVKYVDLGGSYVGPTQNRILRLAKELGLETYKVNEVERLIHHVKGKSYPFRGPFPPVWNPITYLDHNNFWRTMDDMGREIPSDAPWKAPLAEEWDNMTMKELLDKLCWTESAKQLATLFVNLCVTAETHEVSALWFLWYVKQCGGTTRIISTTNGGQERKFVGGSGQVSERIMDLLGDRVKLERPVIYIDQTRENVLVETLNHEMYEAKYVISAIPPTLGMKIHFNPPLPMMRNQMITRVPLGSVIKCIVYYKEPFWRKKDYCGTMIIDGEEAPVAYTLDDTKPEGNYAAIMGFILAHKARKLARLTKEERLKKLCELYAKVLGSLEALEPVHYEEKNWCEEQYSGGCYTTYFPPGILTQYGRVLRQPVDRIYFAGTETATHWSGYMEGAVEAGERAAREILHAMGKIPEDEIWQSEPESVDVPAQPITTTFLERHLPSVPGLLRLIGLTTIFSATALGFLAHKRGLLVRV
Nature of the series: biochemical. The following applies: mean ± SEM (n = 3); 100 µM highest concentration tested. Format: biochemical.

Series [2] has as its target T2, human recombinant AChE (hAChE) (Homo sapiens, UniProt P22303).
T2 construct: purchased Sigma Chemical Co
As to the kind of experiment: biochemical. On the procedure:
The Ellman method was followed, using human recombinant AChE and BuChE from human serum. The assay solution consisted of 0.1 M phosphate buffer pH 8.0, 400 μM 5,5´-dithiobis(2-nitrobenzoic acid) (DTNB, Ellman’s reagent), 0.05 U/mL hAChE (Sigma Chemical Co.) or 0.024 U/mL hBuChE (Sigma Chemical Co.), and 800 μM acetylthiocholine iodide, or 500 μM butyrylthiocholine as the substrate of the enzymatic reaction, respectively. The compounds tested were added to the assay solution and preincubated with the enzyme for 5 min at 30 °C. After that period, the substrate was added.

The next series addresses T3, hLOX-5 (Homo sapiens, UniProt P09917).
T3 sequence (P09917 1-674): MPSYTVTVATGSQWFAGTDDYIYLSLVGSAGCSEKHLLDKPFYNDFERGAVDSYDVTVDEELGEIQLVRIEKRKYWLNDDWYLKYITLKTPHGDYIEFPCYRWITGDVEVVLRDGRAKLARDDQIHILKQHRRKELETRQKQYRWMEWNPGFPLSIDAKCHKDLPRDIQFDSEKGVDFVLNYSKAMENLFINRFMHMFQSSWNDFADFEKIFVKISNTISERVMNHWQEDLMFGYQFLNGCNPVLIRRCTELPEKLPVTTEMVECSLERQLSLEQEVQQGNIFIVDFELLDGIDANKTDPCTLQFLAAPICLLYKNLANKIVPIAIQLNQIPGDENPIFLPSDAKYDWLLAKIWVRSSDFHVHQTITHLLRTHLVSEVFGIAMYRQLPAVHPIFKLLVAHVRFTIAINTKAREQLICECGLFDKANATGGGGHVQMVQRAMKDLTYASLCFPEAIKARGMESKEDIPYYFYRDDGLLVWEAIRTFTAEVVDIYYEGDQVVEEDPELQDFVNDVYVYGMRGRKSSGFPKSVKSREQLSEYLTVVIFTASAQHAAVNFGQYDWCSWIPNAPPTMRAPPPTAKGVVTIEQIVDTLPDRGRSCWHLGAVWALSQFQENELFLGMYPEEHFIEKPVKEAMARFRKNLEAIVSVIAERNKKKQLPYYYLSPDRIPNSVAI
Nature of the series: Inhibition of human lipoxygenase-5 (fluorescence-based, Pufahl). Format: biochemical. The following applies: three independent experiments. On the procedure: The fluorescence-based enzyme method developed by Pufahl et al. was followed, in 96-well microtiter plates. The assay solution consists of Tris buffer (50 mM, pH 7.5), ethylenediaminetetraacetic acid (EDTA, 2 mM), CaCl2 (2 mM), arachidonic acid (AA, 3 μM), ATP (10 μM), 2',7'-dichlorodihydrofluorescein diacetate (H2DCFDA, 10 μM), hLOX-5 (100 mU/well), bovine glutathione peroxidase (GPx, 25 mU/well) and reduced glutathione (GSH, 1 mM). Compounds to be tested were added to the test solution prior to AA and ATP, and pre-incubated for a period of 10 min at room temperature. Then, the AA and ATP substrates were added; the enzymatic reaction allowed to progress for 20 min and ended by the addition of 40 μL of acetonitrile.
A selection of new hybrids covering different structural motifs was assayed as inhibitors of hLOX-5, followed the method described by Pufahl et al.[55].

[3] abbreviates: mean ± SEM (n = 3), read-out: hAChE IC50.
The mark [4] stands for this setting: mean ± SEM, read-out: hLOX-5 IC50.

T2 sequence (P22303 32-614): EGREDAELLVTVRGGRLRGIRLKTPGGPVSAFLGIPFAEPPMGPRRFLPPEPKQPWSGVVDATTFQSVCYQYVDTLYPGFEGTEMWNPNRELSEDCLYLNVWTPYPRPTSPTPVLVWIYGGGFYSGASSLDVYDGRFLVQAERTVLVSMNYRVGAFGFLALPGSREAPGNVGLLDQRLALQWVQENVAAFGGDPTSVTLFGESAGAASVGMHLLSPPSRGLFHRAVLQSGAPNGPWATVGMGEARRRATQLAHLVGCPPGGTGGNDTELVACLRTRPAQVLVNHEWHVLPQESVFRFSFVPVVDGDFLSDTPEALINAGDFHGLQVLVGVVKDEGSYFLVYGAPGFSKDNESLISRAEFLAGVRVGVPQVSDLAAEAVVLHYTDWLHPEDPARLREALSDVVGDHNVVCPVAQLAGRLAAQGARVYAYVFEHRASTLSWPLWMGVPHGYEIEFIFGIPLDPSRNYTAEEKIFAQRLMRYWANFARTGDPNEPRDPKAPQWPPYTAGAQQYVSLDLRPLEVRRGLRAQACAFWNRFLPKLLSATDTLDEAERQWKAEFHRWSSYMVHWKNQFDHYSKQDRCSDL

As for `COc1ccc2oc(C(=O)Nc3ccc(CN(C)Cc4ccccc4)cc3)cc(=O)c2c1` [Compound 1, N-(4-((Benzyl(methyl)amino)methyl)phenyl)-6-methoxy-4-oxo-4H-chromene-2-carboxamide], the Papp at 120 min, 100 μg mL^−1 in series [1] was 17.1 ± 1.5 ×10⁻⁶ cm/s. For the same molecule, the IC50 (commonly the concentration that inhibits the measured activity by half) at recombinant hMAO-B stood at 59.8 ± 3.7 µM; in series [2] (setting [3]) it was 1.5 ± 0.2 µM; on hLOX-5 (setting [4]), 12.4 ± 0.5 µM.
As to `COc1cc2oc(C(=O)Nc3ccc(CN(C)Cc4ccccc4)cc3)cc(=O)c2cc1OC` [Compound 5, N-(4-((Benzyl(methyl)amino)methyl)phenyl)-6,7-dimethoxy-4-oxo-4H-chromene-2-carboxamide], in series [1], the Papp at 120 min, 100 μg mL^−1 was 19.1 ± 1.5 ×10⁻⁶ cm/s. For the same molecule, the concentration for half-maximal inhibition (IC50) at recombinant hMAO-B is 8.1 ± 0.4 µM; in series [2] (hAChE IC50, mean ± SEM (n = 3)) it was 0.99 µM and 1 µM; at hLOX-5 (setting [4]) it was 72.4 ± 2.2 µM.
Turning to `CN(Cc1ccccc1)Cc1ccc(NC(=O)c2cc(=O)c3cc(O)ccc3o2)cc1` [Compound 2, N-(4-((Benzyl(methyl)amino)methyl)phenyl)-6-hydroxy-4-oxo-4H-chromene-2-carboxamide], the Papp at 120 min, 100 μg mL^−1 in series [1] turned out to be 6.8 ± 0.4 ×10⁻⁶ cm/s. Also, the IC50 at recombinant hMAO-B is 9.7 ± 1.6 µM; in series [2] (setting [3]) it was 1.3 ± 0.3 µM; on hLOX-5 (setting [4]) it was greater than 100 µM. For the same molecule, the “hLOX-5 IC50” value at hLOX-5 (mean ± SEM) is “inactive”.
`COc1cc2oc(C(=O)Nc3cccc(CN(C)Cc4ccccc4)c3)cc(=O)c2cc1OC` [Compound 6, N-(3-((Benzyl(methyl)amino)methyl)phenyl)-6,7-dimethoxy-4-oxo-4H-chromene-2-carboxamide]: in series [1], the Papp at 120 min, 100 μg mL^−1 came out at 18.8 ± 1.3 ×10⁻⁶ cm/s. Moreover, the IC50 at recombinant hMAO-B is greater than 100 µM; in series [2] (hAChE IC50, mean ± SEM (n = 3)) it was 4.5 ± 0.8 µM; at hLOX-5 (hLOX-5 IC50, mean ± SEM), 30 µM and 30.4 µM.
